Results as given in patent publication US20050256179A1, “Selective pharmacologic inhibition of protein trafficking and related methods of treating human diseases” (priority 2003, published 2005).

What was measured:
GS28 = GS28 expression by Western blotting; format: cell-based; conditions: for GS28 expression: 100 ng/ml
Description: The culture medium was removed by vacuuming (for attached cells) or by low speed centrifugation (for suspension cells) for 5-7 minutes at room temperature. The cells were wasedh twith PBS, spun at 1200 rpm and the cell pellets were kept on ice. 300 μl/2.0×10^7 cells of ice cold lysis buffer was added with freshly added protease inhibitors. Cell pellets were gently resuspended and incubated on ice for at least 30 min, vortexed a few times during incubation. Cell lysate was spun at 14,000 rpm for 2-5 min at 4° C. The supernatant was transferred to a new microfuge tube and the pellet was discarded. An aliquot of sample was mixed with an equal volume of 2× sample buffer (InVitrogen), and stored at −80° C. Protein concentration was determined by using “BCA protein assay reagent kit” from Pierce.
(§1) Protein samples (in sample buffer) were boiled for 1-3 minutes and put on ice. Same amount of protein were loaded on the NuPage gel (InVitrogen). After the electrophoresis was complete, proteins were transferred from the gel to a PVDF membrane using the electro-blotting apparatus from InVitrogen; the voltage was set to 25 for 2-3 hr. Block non-specific binding by incubating membrane with 5% milk (in PBS, 0.1% tween 20) for at least 30 min at room temperature or overnight at 4° C. The blocked membrane was incubated with primary antibody (See TABLE 2) diluted in 5% milk for 1 hour at room temperature. Optimal antibody dilution depends on the company, the amount of protein. Dilutions of 1:1000 were generally used for the primary antibodies from Santa Cruz. The membrane was washed with PBS, 0.1% tween 3-4 times 5 mins. The membrane was incubated for 30-60 minutes at room temperature with horseradish peroxidase (HRP) conjugated secondary antibody diluted in 5% milk. We usually used 1:4000 dilution for the secondary antibody from Santa Cruz. The membrane was washed 3-4 times with PBS, 0.1% tween, each time 15 minutes. The detection solutions A and B were mixed in a ratio 40:1 and Pipetted onto the membrane, and incubated for 5 min at RT. A sheet of Hyper film ECL was placed on the top of the membrane in the dark and exposed for 1 min, or adjust accordingly.
To further examine the putative protein trafficking effects of AVP 893, other proteins in this pathway were tested in vitro in B16 and other cell lines. The effect of AVP 893 on cellular proteins was corroborated in B16 cells and extended to include a time-course (FIG. 17). B16-F10 tumor cells were seeded in T75 flasks at 20% confluence and cultured overnight. AVP 893 (100 ng/ml) was added to several flasks and one flask of cells was harvested at several time points following addition of compound. Lysates were prepared, separated by electrophoresis, and probed with antibody as described above in the general Western blotting protocol. Drug effects on GS28 and nicastrin paralleled each other and were progressively stronger with longer drug incubations. […] Other cell lines were tested for their expression of GS28 and nicastrin and found to respond similarly to drug, although quantitative differences were evident. Tumor cell lines found to respond similarly to AVP 893 include CAK1, SF295, PC3, MOLT4, Neuro2a, and RBL (FIGS. 18, 19, and 20). For the experiment shown in FIG. 18, LOX, CAKI, and 3T3 cell lines were treated as described for FIG. 17. For the results shown in FIG. 19, SF295, PC3, MOLT-4, and Neuro2a cells were treated as described for FIG. 17. For the results shown in FIG. 20, LOX, 3T3, and RBL cell lines were treated with varying concentrations of AVP 893 as described for FIG. 17. The effects on LOX cells were less evident. […] Levels of calnexin, a resident ER protein used as a control, were unchanged in drug-treated cells.

Rab1b = Rab1b expression by Western blotting; format: cell-based
Description: as §1, with “accordingly. […]” for “accordingly.”

Q: For `O=C(Nc1ccc(-c2nc3cc(NC(=O)C4CCCCC4)ccc3[nH]2)cc1)C1CCCCC1` [AVP 893], which “expression of GS28 and GS15 compared with monensin, Brefeldin A, rapamycin” value (GS28; 3T3 cells, 200 ng/ml, 18 hour) is on record?
A: decreased the expression of GS28 and GS15 more markedly than the other three agents

Q: And the “IC50 for GS28 expression” value (GS28; 3T3 cells, overnight)?
A: 10 and 100 ng/ml

Q: And the “levels of GS28” value (GS28; 3T3 fibroblast cell line)?
A: virtually eliminated

Q: What about the GS28 expression (GS28; B16 cells, two days of culture) of the same compound?
A: complete loss of GS28

Q: And the “GS28 or nicastrin expression” value (GS28; resistant line H-460, overnight)?
A: little effect

Q: And the GS28 expression (GS28; stimulated BALB/c spleen cells, 20 hours)?
A: abrogated

Q: And the Rab1b expression (Rab1b; 3T3 cells)?
A: not affected in 3T3 cells

Q: What about the Rab1b expression (Rab1b; spleen cells) of the same compound?
A: suppressed in spleen cells
